Measurements as given in patent US10172814B2, “Substituted pyridyl-cycloalkyl-carboxylic acids, compositions containing them and medical uses thereof” (BAYER PHARMA AKTIENGESELLSCHAFT, priority 2014, dated 2019).
pIC50: −log10 of the molar value. Like-named read-outs stand apart in the source and are kept apart here.

What was measured:
[1] = system: vaginal hyperalgesia and proliferation in endometriotic lesions; test: Endometriosis disease model (dyspareunia model); type: in vivo, rat; details: 0.75 mg/kg, bid, p.o.
Description: Endometriosis Disease Model (Dyspareunia Model)
Female SD rats underwent endometriosis surgery in the estrus phase. 4 uterine fragments were sewn onto the mesenteric artery arc (closed to small intestine) and few other fragments (>2) were sewn onto the distal colonic wall. In parallel electrodes for later Electromyography (EMG) recordings were implanted in the abdominal wall to allow recording of the visceral motor response. After training viscero-motor response (VMR)/vaginal distension (VD) testing was performed 5 and 6 weeks post-surgery in the proestrus phase. For vaginal distension session, the uninflated balloon was lubricated and inserted into the mid-vaginal canal, located so, that it would not touch the cervix even when inflated. Inflating the balloon with different volumes of water using a computer-controlled pump distended the vaginal canal. In parallel, EMG recordings were collected to measure the VMR related to the distension. At 6 weeks, post-surgery endometriotic lesions and endometrium were excised to perform lesion analysis. RNA expression analysis was performed of lesions and endometrium. RNA of lesions and endometrium was isolated after homogenization of tissues in guanidinium thiocyanate using the RNeasy mini Kit (Qiagen) with DNase digestion. One microgram of RNA was reversely transcribed with random hexamers using the SuperScript III First-Strand Synthesis System (Invitrogen). Real-time Taqman PCR analysis was performed using the 7900HT Real Time PCR-System (Applied Biosystems). Prevalidated probes and primers for Mki67 (antigen identified by monoclonal antibody Ki-67; catalog No. Rn01451446_m1) and the endogenous control TBP* (see FIG. 1A; TATA box binding protein; catalog No. Rn01455646_m1) were purchased from Applied Biosystems. Relative mRNA levels were calculated using the comparative […]CT method using the RQ-Manager software (Applied Biosystems).
Example 17 (0.75 mg/kg, bid, p.o.) was administered twice daily starting end of week 2 post surgery until week 5 post surgery.

[2] = system: CFA induced PGE2 release in the ipsilateral inflamed hind paw of human KI mice (expressing human PTGES); test: PGE2 measurements in CFA inflammation model using humanized KI mice; type: in vivo
Procedure: PGE2 Measurements in CFA Inflammation Model Using Humanized KI Mice
Female transgenic mice expressing the human PTGES enzyme (Taconic, Xu et al. 2008) received intraplantar injection of complete Freund's adjuvant (CFA) (30 μl, 1 mg/ml, Sigma) into the left hind paw under isoflurane anesthesia. […] At termination of the experiments (48 h after CFA, 1 h after dose), hind paw tissue is collected for analysis of PGE2 levels (ELISA, Cayman Chemical item no. 514531). […] Statistical analysis is performed with one-way analysis of variance, followed by Bonferroni's multiple comparison test vs. vehicle controls using the GraphPad PRISM software, *p<0.05, **p<0.01.

human PTGES = human PTGES (Homo sapiens (Human), UniProt O14684); test: Human PTGES biochemical enzyme inhibition assay (conversion of PGH2 to PGE2, TR-FRET)
Sequence of human PTGES (O14684 whole entry): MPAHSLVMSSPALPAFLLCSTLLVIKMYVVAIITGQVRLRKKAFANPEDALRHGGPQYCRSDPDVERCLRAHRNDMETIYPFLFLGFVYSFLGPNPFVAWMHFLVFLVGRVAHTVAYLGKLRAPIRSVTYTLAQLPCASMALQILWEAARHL
How it was run: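 FLAG-tagged human PTGES from Hi-5 insect cells preincubated 15–20 min with compound in pH 7.2 phosphate buffer with 2.5 mM reduced glutathione; reaction started with 8 nM PGH2 final, stopped with SnCl2/KF.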

[3] = Unbound plasma concentration in human KI mice of the CFA model; type: in vivo; details: female, human PTGES knock-in (humanized KI, transgenic) mice, mouse, plasma, oral, 10 mg/kg; read-out: Plasma concentration Cplasma-unbound
Procedure: At termination of the experiments (48 h after CFA, 1 h after dose), hind paw tissue is collected for analysis of PGE2 levels (ELISA, Cayman Chemical item no. 514531). […] Statistical analysis is performed with one-way analysis of variance, followed by Bonferroni's multiple comparison test vs. vehicle controls using the GraphPad PRISM software, *p<0.05, **p<0.01.

[4] = system: CFA-induced pain behavior in WT mice; test: CFA inflammation model with pain read out (dynamic weight bearing); type: in vivo; details: single oral dosing on day 2 post-CFA, example 17: 30, 100 mg/kg, example 44: 30, 75 mg/kg
Procedure: Efficacy in CFA Inflammation Model with Pain Read Out
Wild type (WT) female c57bl/6 mice (Taconic) received intraplantar injection of complete Freund's adjuvant (CFA) (30 μl, 1 mg/ml, Sigma) into the left hind paw under isoflurane anesthesia. […] Spontaneous pain-related behavior in freely moving animals was assessed using the automated dynamic weight bearing device (DWB, Bioseb, France) according to published and validated protocols: Robinson I, Sargent B, Hatcher J P, Neurosci Lett. 2012 Aug. 30; 524(2):107-10. Use of dynamic weight bearing as a novel end-point for the assessment of Freund's Complete Adjuvant induced hypersensitivity in mice; Tétreault P, Dansereau M A, Doré-Savard L, Beaudet N, Sarret P. Physiol Behav. 2011 Sep. […] 2014 Jul. 30; 232:118-24. Use of dynamic weight bearing as a novel end-point for the assessment of abdominal pain in the LPS-induced peritonitis model in the rat. For behavioral testing, the animal was placed inside a Plexiglas chamber and allowed to move freely within the apparatus for a 5 min period, subsequently pain behavior is recorded for a test period of another 5 min.
Statistical analysis is performed with one-way analysis of variance, followed by Bonferroni's multiple comparison test vs. vehicle controls using the GraphPad PRISM software, *p<0.05, **p<0.01.

Compound: Cc1c(CCC(=O)O)cccc1NC(=O)[C@@H](c1ccc(-c2cncc(Cl)c2)cc1)C1CCCC1 [Example 17, (−) (R) 3-[3-({[4-(5-Chloropyridin-3-yl)phenyl](cyclopentyl)acetyl}amino)-2-methylphenyl]propanoic acid]
- vaginal hyperalgesia versus vehicle-treated animals ([1]; end of week 2 until week 5 post surgery, rats): significantly decreased vaginal hyperalgesia
- proliferation in lesions (gene expression of proliferation marker Ki67 vs. housekeeping control) ([1]; Taqman in week 6): significantly reduced proliferation in lesions
- vaginal hyperalgesia effect in the treatment free period ([1]; treatment free period of week 6): effect was maintained
- % inhibition of PGE2 in vivo vs vehicle ([2]; 10 mg/kg, p.o., single dose, hind paw 48 h after CFA, 1 h after dose): 88%
- inhibition of CFA-induced PGE2 formation/release in the hind paw ([2]; single oral dosing, hu KI mice): strong efficacy
- pIC50 (human PTGES; Enzymatic conversion of PGH2 to PGE2, read-out: Human PTGES IC50): 7.45
- pIC50 (human PTGES; human PTGES, as listed in Table 2, read-out: hu IC50 biochem.): 7.46
- concentration at 1 h [3]: 380 nM
- pain behavior as assessed by DWB after CFA-induced inflammation [4]: significantly and dose-dependently reduced pain behavior
